Data on 1 molecule can be found in PMC7994318, “Cancer-associated cells release citrate to support tumour metastatic progression” (Life Science Alliance, 2021).

A word on the pKd: it is the Kd on a negative log10 scale, so that one unit is a factor of ten. A lower pKd goes with a large Kd.

pKd: −log10 of the molar value.

The assay addresses T1, pmCiC (plasma membrane citrate transporter) (Homo sapiens, UniProt P53007).
T1 construct: gene SLC25A1; His-tagged pmCiC expressed in Sf9 cells, solubilized in dodecylmaltoside and purified by Ni-NTA
The assay can be described thus: Trp fluorescence quenching titration of purified protein. The format is binding.

T1 sequence (P53007 14-311): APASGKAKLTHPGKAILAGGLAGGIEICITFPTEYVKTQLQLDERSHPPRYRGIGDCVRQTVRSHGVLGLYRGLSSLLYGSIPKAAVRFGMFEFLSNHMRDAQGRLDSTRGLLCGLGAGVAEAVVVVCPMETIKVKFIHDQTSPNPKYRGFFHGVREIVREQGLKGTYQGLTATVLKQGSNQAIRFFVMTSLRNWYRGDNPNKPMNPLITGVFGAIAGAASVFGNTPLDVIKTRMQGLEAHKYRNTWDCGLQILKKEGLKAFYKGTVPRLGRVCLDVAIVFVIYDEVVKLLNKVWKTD

As for `O=C(O)CC(O)(CC(=O)O)C(=O)O` [citrate], the pKd was 1.80.
